For 15 compounds, IC50 results are on record in patent US12643886B2 (Ontario Institute for Cancer Research (OICR), priority 2021, dated 2026).

The structures appear in SMILES notation. A value given as a limit tells only on which side of the number the result lay.

By IC50 is commonly meant the concentration at which inhibition is half-maximal.

One test has as its target T1, NUAK2 (h) (Homo sapiens, UniProt Q9H093).
T1 construct: This assay was done radiometrically using full-length, recombinant enzyme; purchased Eurofins
T1 sequence (Q9H093 1-628): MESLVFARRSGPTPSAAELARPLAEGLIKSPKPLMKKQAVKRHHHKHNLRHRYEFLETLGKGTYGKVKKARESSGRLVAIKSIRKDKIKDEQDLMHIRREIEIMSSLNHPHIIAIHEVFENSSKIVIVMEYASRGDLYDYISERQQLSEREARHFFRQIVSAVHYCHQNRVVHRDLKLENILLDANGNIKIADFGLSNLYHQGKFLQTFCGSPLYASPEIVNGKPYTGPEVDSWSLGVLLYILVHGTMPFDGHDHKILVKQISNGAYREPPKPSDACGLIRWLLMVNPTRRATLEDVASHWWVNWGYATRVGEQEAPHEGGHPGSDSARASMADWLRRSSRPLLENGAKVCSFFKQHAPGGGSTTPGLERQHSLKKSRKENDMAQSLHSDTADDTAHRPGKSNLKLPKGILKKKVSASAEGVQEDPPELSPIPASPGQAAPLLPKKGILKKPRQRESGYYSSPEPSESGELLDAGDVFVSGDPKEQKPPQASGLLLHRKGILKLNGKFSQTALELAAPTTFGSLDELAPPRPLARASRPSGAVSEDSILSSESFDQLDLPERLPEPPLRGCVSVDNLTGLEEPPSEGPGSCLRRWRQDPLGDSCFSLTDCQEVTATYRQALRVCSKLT
The test can be described thus: NUAK2 enzymatic assay (radiometric, Eurofins). It counts as biochemical. Conditions: full-length recombinant enzyme. A digest of the protocol:
(§1)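 Full-length recombinant NUAK2 incubated 40 min at room temperature in 8 mM MOPS pH 7.0, 0.2 mM EDTA, 10 mM magnesium acetate, 300 μM peptide substrate and 33P-ATP. Stopped with 0.5% phosphoric acid; filter-bound label counted by scintillation. IC50 reported as ranges; NUAK1 and Aurora A served as counter-screens.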

The target of another test is T2, NUAK1 (Homo sapiens, UniProt O60285).
T2 sequence (O60285 1-661): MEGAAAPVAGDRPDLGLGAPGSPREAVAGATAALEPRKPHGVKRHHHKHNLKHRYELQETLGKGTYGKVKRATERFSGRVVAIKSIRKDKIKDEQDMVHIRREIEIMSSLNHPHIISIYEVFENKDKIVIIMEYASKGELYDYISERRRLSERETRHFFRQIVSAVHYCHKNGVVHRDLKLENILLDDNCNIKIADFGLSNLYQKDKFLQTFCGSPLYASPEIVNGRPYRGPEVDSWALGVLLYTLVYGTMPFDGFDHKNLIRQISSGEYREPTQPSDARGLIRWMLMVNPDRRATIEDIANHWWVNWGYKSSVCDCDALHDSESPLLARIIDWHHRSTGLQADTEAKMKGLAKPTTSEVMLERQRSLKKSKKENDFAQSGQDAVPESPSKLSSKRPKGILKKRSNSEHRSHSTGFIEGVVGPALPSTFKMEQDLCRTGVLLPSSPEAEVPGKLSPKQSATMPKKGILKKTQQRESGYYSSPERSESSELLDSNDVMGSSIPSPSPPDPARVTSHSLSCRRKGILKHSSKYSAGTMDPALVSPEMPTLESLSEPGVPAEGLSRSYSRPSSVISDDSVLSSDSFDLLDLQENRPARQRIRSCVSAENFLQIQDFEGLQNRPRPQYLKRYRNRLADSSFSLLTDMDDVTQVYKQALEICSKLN
The test can be described thus: Counter-screen against NUAK1. In kind it is biochemical. A digest of the protocol: as §1
A general note: The purpose of a counterscreen is to sort out artefacts and off-target activity.

Another test has as its target T3, Aurora A (Homo sapiens, UniProt O14965).
T3 sequence (O14965 1-403): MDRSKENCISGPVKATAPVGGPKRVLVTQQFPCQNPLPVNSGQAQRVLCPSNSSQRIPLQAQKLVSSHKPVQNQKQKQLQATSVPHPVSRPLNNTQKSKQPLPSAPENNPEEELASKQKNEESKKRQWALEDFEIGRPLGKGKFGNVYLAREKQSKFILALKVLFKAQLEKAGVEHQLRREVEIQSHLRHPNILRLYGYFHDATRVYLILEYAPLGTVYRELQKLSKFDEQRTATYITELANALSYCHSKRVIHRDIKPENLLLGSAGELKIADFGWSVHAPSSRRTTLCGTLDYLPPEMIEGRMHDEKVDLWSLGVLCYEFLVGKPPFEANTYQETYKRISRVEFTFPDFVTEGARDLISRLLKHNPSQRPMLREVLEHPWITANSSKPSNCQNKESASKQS
The test can be described thus: Counter-screen against Aurora A. Conditions: read-out: AUR-A (IC50). In kind it is biochemical. A digest of the protocol:
as §1

Another test has as its system MDA-MB-231 cells. The test can be described thus: Tumor cell growth inhibition assay (ATPlite, 5 days). It counts as cell-based. Conditions: Homo sapiens, 120 h; breast tumor cell line MDA-MB-231, 5 days. The method, then:
MDA-MB-231 cells were seeded into a 384-well plate at 1,000 cells/well in 50 μl medium (Alpha-MEM containing 10% FBS, […] Normocin, Invivogen and […] Gentamycin, Invitrogen). Plates were then incubated overnight for the cells to attach. An HP D300 digital dispenser was used to dose cells with DMSO or test compounds across a 16-point range of concentrations (high dose of 10 uM to low dose of 5 nM). Plates were incubated in a humidified 5% CO2 incubator at 37° C. After 5 days, plates were removed from the incubator and equilibrated to room temperature. An equal volume of ATPlite assay reagent was then added to each well, and samples processed according to manufacturer's instructions (Perkin Elmer). Luminescent signals were then measured using an Envision plate reader equipped with a US-Luminescence detector.

Regarding `COc1cc2c(cc1Nc1ncc(C(F)(F)F)c(Nc3cccc4c3C(=O)NC4)n1)CCNC2` [Compound I-27], the IC50 on NUAK2 (h) is 11 to 100 nM; against NUAK1, 11 to 100 nM; on Aurora A, greater than 1000 nM; in the test with MDA-MB-231 cells, 36 nM.

With `CCN1CCN(C2CCN(c3ccc(Nc4ncc(C(F)(F)F)c(Nc5cccc6c5C(=O)NC6)n4)c(OC(F)F)c3)CC2)CC1` [Compound I-33, 7-((2-((2-(difluoromethoxy)-4-(4-(4-ethylpiperazin-1-yl)piperidin-1-yl)phenyl)amino)-5-(trifluoromethyl)pyrimidin-4-yl)amino)isoindolin-1-one], the IC50 at NUAK2 (h) is 11 to 100 nM; against NUAK1 it was 11 to 100 nM; at Aurora A it was 101 to 1000 nM; in the test with MDA-MB-231 cells, 38 nM.

For the compound `O=C1NCc2cccc(Nc3nc(Nc4ccc(N5C[C@H]6C[C@@H]5CN6)cc4OC(F)F)ncc3C(F)(F)F)c21` [Compound I-71, 7-((2-((4-((1R,4R)-2,5-diazabicyclo[2.2.1]heptan-2-yl)-2-(difluoromethoxy)phenyl)amino)-5-(trifluoromethyl)pyrimidin-4-yl)amino)isoindolin-1-one], the IC50 on NUAK2 (h) was 0.1 to 10 nM; on NUAK1, 11 to 100 nM; at Aurora A it was 101 to 1000 nM.

For the compound `O=C1NCc2cccc(Nc3nc(Nc4ccc(N5C[C@H]6C[C@@H]5CN6)cc4OC(F)F)ncc3Cl)c21` [Compound I-72, 7-((2-((4-((1R,4R)-2,5-diazabicyclo[2.2.1]heptan-2-yl)-2-(difluoromethoxy)phenyl)amino)-5-chloropyrimidin-4-yl)amino)isoindolin-1-one], the figures for the IC50 at NUAK2 (h), against NUAK1 and at Aurora A were 0.1 to 10 nM, 11 to 100 nM and 101 to 1000 nM, respectively.

For the compound `CC(C)N1C[C@@H]2C[C@H]1CN2c1ccc(Nc2ncc(C(F)(F)F)c(Nc3cccc4c3C(=O)NC4)n2)c(OC(F)F)c1` [Compound I-73, 7-((2-((2-(difluoromethoxy)-4-((1S,4S)-5-isopropyl-2,5-diazabicyclo[2.2.1]heptan-2-yl)phenyl)amino)-5-(trifluoromethyl)pyrimidin-4-yl)amino)isoindolin-1-one], the 50% inhibitory concentration (IC50) is 0.1 to 10 nM on NUAK2 (h), 0.1 to 10 nM on NUAK1 and 101 to 1000 nM on Aurora A.

Regarding `O=C1NCc2cccc(Nc3nc(Nc4ccc(N5CCCNCC5)cc4OC(F)F)ncc3Cl)c21` [Compound I-74, 7-((2-((4-(1,4-diazepan-1-yl)-2-(difluoromethoxy)phenyl)amino)-5-chloropyrimidin-4-yl)amino)isoindolin-1-one], the IC50 on NUAK2 (h) is 0.1 to 10 nM; at NUAK1, 11 to 100 nM; on Aurora A, 101 to 1000 nM.

As for `O=C1NCc2cccc(Nc3nc(Nc4ccc(N5[C@@H]6CC[C@H]5CNC6)cc4OC(F)F)ncc3Cl)c21` [Compound I-75, 7-((2-((4-((1R,5S)-3,8-diazabicyclo[3.2.1]octan-8-yl)-2-(difluoromethoxy)phenyl)amino)-5-chloropyrimidin-4-yl)amino)isoindolin-1-one], the IC50 on NUAK2 (h), against NUAK1 and at Aurora A was 0.1 to 10 nM throughout.

With `O=C1NCc2cccc(Nc3nc(Nc4ccc(N5C[C@H]6CNC[C@H]6C5)cc4OC(F)F)ncc3Cl)c21` [Compound I-76, 7-((5-chloro-2-((2-(difluoromethoxy)-4-((3aR,6aS)-hexahydropyrrolo[3,4-c]pyrrol-2(1H)-yl)phenyl)amino)pyrimidin-4-yl)amino)isoindolin-1-one], the IC50 fell in the range of 0.1 to 10 nM at NUAK2 (h), 11 to 100 nM on NUAK1 and 101 to 1000 nM at Aurora A.

Turning to `O=C1NCc2cccc(Nc3nc(Nc4ccc(N5CCC6(CCNCC6)CC5)cc4OC(F)F)ncc3Cl)c21` [Compound I-77, 7-((5-chloro-2-((2-(difluoromethoxy)-4-(3,9-diazaspiro[5.5]undecan-3-yl)phenyl)amino)pyrimidin-4-yl)amino)isoindolin-1-one], the IC50 lay in the range of 11 to 100 nM at NUAK2 (h), 11 to 100 nM against NUAK1 and 101 to 1000 nM at Aurora A.

Turning to `CCN1CCN(c2ccc(Nc3ncc(C(F)(F)F)c(Nc4cccc5c4C(=O)NC5)n3)c(OC(F)F)c2)CC1` [Compound I-78, 7-((2-((2-(difluoromethxoy)-4-(4-ethylpiperazin-1-yl)phenyl)amino)-5-(trifluoromethyl)pyrimidin-4-yl)amino)isoindolin-1-one], the IC50 was in the range of 0.1 to 10 nM on NUAK2 (h), 11 to 100 nM against NUAK1 and 101 to 1000 nM on Aurora A.

`CN1CCN(c2ccc(Nc3ncc(C(F)(F)F)c(Nc4cccc5c4C(=O)NC5)n3)c(OC(F)F)c2)CC1` [Compound I-79, 7-((2-((2-(difluoromethxoy)-4-(4-methylpiperazin-1-yl)phenyl)amino)-5-(trifluoromethyl)pyrimidin-4-yl)amino)isoindolin-1-one]: the figures for the half-maximal inhibitory concentration (IC50) on NUAK2 (h), at NUAK1 and at Aurora A were 0.1 to 10 nM, 11 to 100 nM and 101 to 1000 nM, respectively.

Regarding `CCN1CCN(C2CCN(c3ccc(Nc4ncc(Cl)c(Nc5cccc6c5C(=O)NC6)n4)c(OC(F)F)c3)CC2)CC1` [Compound I-80, 7-((5-chloro-2-((2-(difluoromethoxy)-4-(4-(4-ethylpiperazin-1-yl)piperidin-1-yl)phenyl)amino)pyrimidin-4-yl)amino)isoindolin-1-one], the IC50 lay within 11 to 100 nM on NUAK2 (h), 11 to 100 nM at NUAK1 and 101 to 1000 nM at Aurora A.

Regarding `CC(C)N1CCN(C2CCN(c3ccc(Nc4ncc(Cl)c(Nc5cccc6c5C(=O)NC6)n4)c(OC(F)F)c3)CC2)CC1` [Compound I-81, 7-((5-chloro-2-((2-(difluoromethoxy)-4-(4-(4-isopropylpiperazin-1-yl)piperidin-1-yl)phenyl)amino)pyrimidin-4-yl)amino)isoindolin-1-one], the concentration for half-maximal inhibition (IC50) on NUAK2 (h) was 11 to 100 nM; at NUAK1, 11 to 100 nM; on Aurora A, 101 to 1000 nM.

Regarding `CN1C[C@@H]2C[C@H]1CN2c1ccc(Nc2ncc(C(F)(F)F)c(Nc3cccc4c3C(=O)NC4)n2)c(OC(F)F)c1` [Compound I-82, 7-((2-((2-(difluoromethoxy)-4-((1S,4S)-5-methyl-2,5-diazabicyclo[2.2.1]heptan-2-yl)phenyl)amino)-5-(trifluoromethyl)pyrimidin-4-yl)amino)isoindolin-1-one], the IC50 at NUAK2 (h) fell in the range of 0.1 to 10 nM; at NUAK1, 11 to 100 nM; on Aurora A, 101 to 1000 nM.

On to `Cc1cnc(Nc2ccc(N3CCN(C)CC3)cc2OC(F)F)nc1Nc1cccc2c1C(=O)NC2` [Compound I-83, 7-((2-((2-(difluoromethoxy)-4-(4-methylpiperazin-1-yl)phenyl)amino)-5-methylpyrimidin-4-yl)amino)isoindolin-1-one], for which the IC50 is 0.1 to 10 nM at NUAK2 (h), 11 to 100 nM at NUAK1 and greater than 1000 nM on Aurora A.
